Active and inactive are the calls of the source.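 How the source made its calls: active means compounds whose fitted half-maximal concentration in the cell-protection dose series is at or below a set limit; inactive means the rest.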
What follows are molecules tested on H9c2 cardiomyocytes, 2-deoxyglucose stress, ATP luminescence, 2 h (assay: protection of cardiomyocytes from 2-deoxyglucose injury, dose response, cell-based, 2-deoxyglucose stress, uHTS hits (AID 588780)).
For O=C(Cn1[nH]c(=O)c2ccccc2c1=O)N1CCN(S(=O)(=O)c2ccc(Cl)cc2)CC1, the IC50 was > 79 µM (inactive).
Work on CC(=O)Nc1ccc(Nc2nc(-c3sc(NC(C)=O)nc3C)cs2)cc1 yielded an IC50 of 14.4 µM.
In the case of COc1ccc(-c2oc3c(OC)c(OC)c(OC)c(O)c3c(=O)c2OC)cc1OC, the IC50 is reported as > 79 µM (inactive).
Work on O=S(=O)(c1ccccc1)N1CCN(c2nc(-c3cccnc3)nc3ccccc23)CC1 yielded an IC50 of 12.4 µM.
With CCOc1ccc(-n2cc(-c3ccccc3)c3c(N4CCOCC4)ncnc32)cc1 the IC50 was > 79 µM (inactive).
Molecule Brc1ccc(-c2nn3c(-c4ccco4)nnc3s2)o1 has an IC50 of 20 µM.
In the case of Cc1ccc(-c2nnc3ccc(SCC(=O)N4CCCc5ccccc54)nn23)cc1, the IC50 is reported as > 79 µM (inactive).
Molecule CCOC(=O)C1CCN(c2cc3c(cc2NC(=O)c2ccccc2Cl)n(C)c(=O)n3C)CC1 has an IC50 of 11.7 µM.
O=C(Nc1nc(-c2ccccn2)cs1)c1cccc(-n2cnnn2)c1 was tested, and the IC50 was > 79 µM (inactive).
With CC(=O)NCc1ccc(-c2csc(NC(=O)CCc3nc4ccccc4c(=O)[nH]3)n2)s1 the IC50 was > 79 µM (inactive).
For NC(=O)c1ccccc1OCC(=O)NC12CC3CC(CC(C3)C1)C2, the IC50 was > 79 µM (inactive).
In the case of COc1ccccc1NS(=O)(=O)c1ccc2oc(SCC(=O)N3CCNC3=O)nc2c1, the IC50 is reported as 36.5 µM (inactive).
In the case of CCOC(=O)N1CCN(C(=O)CSc2nc3ccccc3c(=O)n2-c2ccccc2)CC1, the IC50 is reported as 33.6 µM (inactive).
In the case of O=c1[nH]nc(Cc2ccc([N+](=O)[O-])cc2)c2ccccc12, the IC50 is reported as 29.5 µM.
For Cc1nc(N2CCN(S(=O)(=O)c3cccc4nonc34)CC2)c2c3c(sc2n1)CCCC3, the IC50 was > 79 µM (inactive).
COc1cc(C)cc2oc(=O)c(CC(=O)N3CCN(C(=O)C4COc5ccccc5O4)CC3)c(C)c12 (configuration not stated) was tested, and the IC50 was 34.9 µM (inactive).
In the case of O=C(Nc1nnc(C2CC2)s1)c1cc(-c2ccccc2)nn1-c1ccccc1, the IC50 is reported as > 79 µM (inactive).
For CC(OC(=O)CCc1nc2ccccc2c(=O)[nH]1)C(=O)NC1CCCC1 (configuration not stated), the IC50 was 57.3 µM (inactive).
With Cc1ccc2sc(NNC(=O)c3ccc4c(c3)OCCO4)nc2c1C the IC50 was > 79 µM (inactive).
In the case of CC(=O)Nc1ccc(C(=O)N/N=C/c2ccccc2OC(=O)c2ccc(Cl)cc2)cc1, the IC50 is reported as 11.5 µM.
In the case of COc1ccc(OC)c(NC(=O)COC(=O)c2c3c(nc4ccccc24)CCCC3)c1, the IC50 is reported as > 79 µM (inactive).
In the case of CSc1nc2ncc3c(n2n1)CC1c2ccccc2CCN1C3=O (configuration not stated), the IC50 is reported as > 79 µM (inactive).
In the case of CCCCCCSc1ccc([C@H]2N[C@@](Cc3ccccc3)(C(=O)OC)[C@H]3C(=O)N(C)C(=O)[C@@H]23)cc1, the IC50 is reported as > 79 µM (inactive).
COc1ccccc1NC(=O)c1cc(-c2ccc(OC)c(OC)c2)nc2ccccc12 was tested, and the IC50 was > 79 µM (inactive).
In the case of COc1ccccc1C(=O)NCC(=O)N/N=C/c1cc(Br)ccc1OC(=O)/C=C\c1ccco1, the IC50 is reported as > 79 µM (inactive).
With CC(OC(=O)Cn1[nH]c(=O)c2ccccc2c1=O)C(=O)Nc1ccc(F)cc1 (configuration not stated) the IC50 was > 79 µM (inactive).
In the case of Cn1c2ccccc2c(=O)c2ccc(NCc3ccc4c(c3)OCO4)cc21, the IC50 is reported as 8.06 µM.
For O=C(/C=C\c1cn(-c2ccccc2)nc1-c1ccc2c(c1)OCCO2)N1CCOCC1, the IC50 was > 79 µM (inactive).
For O=C1c2cccnc2Oc2ccc(Cl)cc2N1Cc1ccc(F)cc1, the IC50 was > 79 µM (inactive).
With O=C(Nc1ccc2c(c1)OCO2)c1cnn2c(C(F)(F)F)cc(-c3ccco3)nc12 the IC50 was 7.33 µM.
In the case of CNS(=O)(=O)c1cc2c3c(cccc3c1)C(=O)NC2=O, the IC50 is reported as > 79 µM (inactive).
For COCCCN(Cc1ccco1)C(=O)Cn1ncc2c([nH]c3ccccc32)c1=O, the IC50 was 13.8 µM.
With Cn1c2ccccc2c2cc(/C=N/NC(=O)c3cc(O)ccc3O)ccc21 the IC50 was > 79 µM (inactive).
In the case of COc1cc(-c2ccc3oc(-c4ccsc4)cc(=O)c3c2)cc(OC)c1OC, the IC50 is reported as > 79 µM (inactive).
O=[N+]([O-])c1ccc(-c2nc(Nc3ccc(O)cc3)c3ccccc3n2)cc1 was tested, and the IC50 was > 79 µM (inactive).
For CCOc1ccc(C(C(=O)NCC2CCCO2)N(C(=O)c2snc(C(N)=O)c2N)c2ccccc2F)cc1 (configuration not stated), the IC50 was 20.6 µM.
In the case of CCOC(=O)C1=NN(C(=O)c2ccco2)C2(CC2)C1, the IC50 is reported as > 79 µM (inactive).
O=C(NC(O)C(=O)c1cccs1)c1cccnc1 (configuration not stated) was tested, and the IC50 was > 79 µM (inactive).
COC(=O)c1cc2c(C)c(C)c3ccccn3c-2c1C(=O)OC was tested, and the IC50 was > 79 µM (inactive).
In the case of NC(=O)c1nsc(C(=O)N(c2ccccc2F)C(C(=O)NCc2ccc(F)cc2)c2ccc(O)cc2)c1N (configuration not stated), the IC50 is reported as > 79 µM (inactive).
O=C(NN=Cc1cccc([N+](=O)[O-])c1)c1cc(-c2cccnc2)nc2ccccc12 was tested, and the IC50 was > 79 µM (inactive).
With O=C(NNC(=O)c1cc2cc(Br)ccc2oc1=O)c1ccc(O)cc1O the IC50 was 31.7 µM (inactive).
COc1ccccc1-c1cc(C(=O)N/N=C/C=C/c2ccccc2[N+](=O)[O-])c2ccccc2n1 was tested, and the IC50 was > 79 µM (inactive).
In the case of CCOC(=O)C1=c2/c(=C/c3ccncc3)c(N)c(C(=O)OC)n2C(=O)C(c2ccncc2)S1 (configuration not stated), the IC50 is reported as > 79 µM (inactive).
For O=C(Nc1cccc(N=Cc2cc(Br)cc(Br)c2O)c1)c1ccco1, the IC50 was > 79 µM (inactive).
For CCN(CC)c1ccc(C(=O)NNC(=O)CCc2nc3ccccc3c(=O)[nH]2)cc1, the IC50 was > 79 µM (inactive).
In the case of CCC(c1nnnn1Cc1ccco1)N(Cc1cc2cc(C)cc(C)c2[nH]c1=O)CC1CCCO1 (configuration not stated), the IC50 is reported as > 79 µM (inactive).
For COc1cc(C(=O)NCC(=O)N/N=C/c2ccc(-c3cccc([N+](=O)[O-])c3)o2)cc(OC)c1OC, the IC50 was 12.5 µM.
Cc1ccc(C)c2[nH]c(=O)c(CN(Cc3ccc4c(c3)OCO4)Cc3nnnn3Cc3ccco3)cc12 showed an IC50 of 13.1 µM.
COc1cc(-c2cc(NC(C)=O)c3ncc(-c4ccc(C(C)=O)cc4)n3c2)cc(OC)c1OC was tested, and the IC50 was > 79 µM (inactive).
Work on COC(=O)c1ccc(CSc2ccc3nnc(-c4cccc(F)c4)n3n2)o1 yielded an IC50 of 27.4 µM.
With CCOC(=O)C1=C(C)Nc2ccccc2N=C1NC(=O)c1oc2ccccc2c1COC the IC50 was > 79 µM (inactive).
For Cc1cccc(OCCn2nc(C(=O)O)c3ccccc3c2=O)c1, the IC50 was > 79 µM (inactive).
CS/C(=N\S(=O)(=O)c1ccccc1)c1ccccc1 was tested, and the IC50 was 41.3 µM (inactive).
COc1cc(CCNc2ccc3nnc(-c4ccccc4)n3n2)cc(OC)c1OC showed an IC50 of 23.9 µM.
CC(=C/c1ccc(C(C)C)cc1)/C=N/NC(=O)c1ccncc1 was tested, and the IC50 was > 79 µM (inactive).
With O=C(COc1ccc([N+](=O)[O-])cc1)Nc1nc(-c2ccccn2)cs1 the IC50 was > 79 µM (inactive).
COc1cccc(CN2CCN(C(=O)c3cc(-c4cccnc4)nc4ccc(C)cc34)CC2)c1 showed an IC50 of 22.4 µM.
With COCCCn1c(N)c(C(=O)Nc2sc3c(c2C(=O)OC)CCCC3)c2nc3ccccc3nc21 the IC50 was 34 µM (inactive).
With O=C(COC(=O)Cn1[nH]c(=O)c2ccccc2c1=O)Nc1ncc(Cl)cc1Cl the IC50 was > 79 µM (inactive).
In the case of Cc1c(C2Nc3ccccc3C(=O)N2O)cnn1C (configuration not stated), the IC50 is reported as 14.6 µM.
COc1ccc(NC(=O)N(CCCN(C)C)Cc2cc3cc(OC)ccc3[nH]c2=O)cc1 was tested, and the IC50 was > 79 µM (inactive).
O=C(NCCc1ccccc1Cl)c1ccc2nc3ccccc3c(=O)n2c1 was tested, and the IC50 was 16.8 µM.
In the case of COc1ccc(CC(=O)NCC(=O)N/N=C/c2cc(Br)ccc2OC)cc1, the IC50 is reported as > 79 µM (inactive).
Work on CC(C)(C)OC(=O)C[C@H]1C/C=C\C[C@H](CC(=O)N[C@H](CO)Cc2ccccc2)C(=O)N[C@H](Cc2ccccc2)COC1=O yielded an IC50 of 20.5 µM.
In the case of COc1ccc(Cl)cc1NC(=O)CN(C)C(=O)Cc1n[nH]c(=O)c2ccccc12, the IC50 is reported as > 79 µM (inactive).
CCC1(C)Cc2c(sc3nc(NN)n(C)c(=O)c23)CO1 (configuration not stated) was tested, and the IC50 was > 79 µM (inactive).

Source: PubChem BioAssay AID588780 (Sanford-Burnham Center for Chemical Genomics, 2011)
